# Data as given in patent US7173014B2, “HIV-specific synthetic oligonucleotides and methods of their use” (priority 1997, dated 2007).
# How the values were obtained:
# [1] = system: fresh human peripheral blood mononuclear cells; assay: Toxicity in uninfected and HIV-1 infected fresh human PBMC (XTT, MTT, trypan blue, tritiated thymidine); type: cell-based
# Protocol: In yet another experiment, the toxicity of Oligo 41 was evaluated in uninfected and HIV-1 infected fresh human peripheral blood mononuclear cells, using a variety of quantitative endpoints. Toxicity was evaluated using the tetrazolium dyes XTT or MTT, trypan blue cell and cell viability counting and the incorporation of tritiated thymidine. Two replicate assays were performed. In the first assay, Oligo 41 was used at a high test concentration of 50 μg/ml and toxicity was evaluated on day 7. […] A second assay was performed to further evaluate toxicity at higher compound concentration and with longer exposure to the compound.
# For the PBL assay, PHA-P stimulated cells from at least two normal donors were pooled, set in fresh medium at 2×10^6/ml, and plated in the interior wells of a 96 well round bottom microplate at 50 μL/well. Test drug dilutions were prepared at a 2× concentration in microtiter tubes, and 100 μl of each concentration was placed in appropriate wells in a standard format. Fifty microliters of a predetermined dilution of virus stock was placed in each test well. […]
# Tritiated thymidine incorporation was measured in parallel cultures at day 7. […] The filters were dried, placed in a scintillation vial with 1 ml of scintillation cocktail and incorporated radioactivity was quantified on a liquid scintillation counter (e.g., Packard Tri-Carb 1900 TR450).
# HIV-2 (ROD) = assay: XTT-based anti-HIV assay, HIV-2; type: cell-based; conditions: XTT assay
# Excerpt: The initial experiment performed involved evaluation of Oligos 12, 32, and 41 against three laboratory strains of HIV-1 (IIIB, RF and SK1) and one strain of HIV-2 (ROD) in parallel with the positive control compound ddC in the XTT-based anti-HIV assay. All these oligonucleotides are active against both HIV-1 and HIV-2.
# CEM-SS sells (AIDS Research and Reference Reagent Program, NIH) or other established human T cell lines used in these experiments were passaged in T-150 flasks for use in the assay. On the day preceding the assay, the cells were split 1:2 to assure they would be in an exponential growth phase at time of infection. On the day of assay the cells were washed twice with tissue culture medium and resuspended in fresh tissue cultures medium. Total cell and viability counting was performed using a hemacytometer and trypan blue dye exclusion. Cell viability was greater than 95% for the cells to be utilized in the assay. The cells were pelleted and resuspended at 2.5×10^4 cells per ml in tissue culture medium. Cells were added to the drug-containing plates in a volume of 50 μl.
# A pretitered aliquot of virus was removed from the freezer −80° C.) and allowed to thaw slowly to room temperature in a biological safety cabinet. The virus was resuspended and diluted into tissue culture medium such that the amount of virus added to each well in a volume of 50 μl will be the amount determined to give complete cell killing at 6 days post-infection. In general the virus pools produced with the IIIB isolate of HIV required the addition of 5 μl of virus per well.
# Each plate contained cell control wells (cells only), virus control wells (cells plus virus), drug toxicity control wells (cells plus drug only), drug colorimetric control wells (drug only) as well as experimental wells (drug plus cells plus virus).
# After 6 days of incubation at 37° C. in a 5% CO2 incubator, the test plates were analyzed by staining with the tetrazolium dye XTT. XTT-tetrazolium is metabolized by the mitochondrial enzymes of metabolically active cells to a soluble formazan product, allowing the rapid quantitative analysis of the inhibition of HIV-induced cell killing by anti-HIV test substances. On day 6 post-infection plates were removed from the incubator and observed. The use of round bottom microtiter plates allows rapid macroscopic analysis of the activity of a given test compound by the evaluation of pellet size. The results of the macroscopic observations were confirmed and enhanced by further microscopic analysis.
# XTT solution was prepared daily as a stock of 1 mg/ml in PBS. Phenazine methosulfate (PMS) solution was prepared at 15 mg/ml in PBS and stored in the dark at −20° C. XTT/PMS stock was prepared immediately before use by diluting the PMS 1:100 into PBS and adding 40 μl per ml of XTT solution. Fifty microliters of XTT/PMS was added to each well of the plate and the plate was incubated for an additional 4 hours at 37° C. Adhesive plate sealers were used in place of the lids, the sealed plate was inverted several times to mix the soluble formazan product and the plate was read spectrophotometrically at A450 nm with a Molecular Devices Vmax plate reader.
substance,measurement,setting,value
"Oligo 41: oligonucleotide having SEQ ID NO:6; sequence not printed, not listed in TABLE 2 (UCGCACCCATCTCTCTCCUUC; chemistry not given here)",toxicity,"[1]; high test concentration 50 μg/ml, day 7, any quantitative endpoint",No toxicity was detected
same,toxicity,"[1]; high test concentration 150 μg/ml, exposure extended to 14 days",no toxicity was detected
same,level of activity against the HIV-2 strain ROD,HIV-2 (ROD); compared with the HIV-1 strains,enhanced level of activity
same,activity against HIV-2,HIV-2 (ROD); strain ROD,active
